Laboratory results: patent US9102582B2, “Method of producing alcohols” (priority 2009, dated 2015)

What was measured:
[1] = cited from earlier work
[2] = solubility in water; settings: same solubility expressed in moles

| SMILES | solubility in water [1] | solubility in water (molar) [2] |
| --- | --- | --- |
| CCBr [ethyl bromide] | 0.91 grams per 100 ml of water | 0.0835 moles per 1000 ml of water |
| CCCC(=O)OCC [ethyl butyrate] | 0.68 grams per 100 ml of water | 0.059 moles per 1000 ml of water |
| COC(=O)c1ccccc1 [methyl benzoate] | 0.157 grams per 100 ml of water | 0.001532 moles per 1000 ml of water |
| CBr [methyl bromide] | 0.09 grams per 100 ml of water | 0.0094 moles per 1000 ml of water |
